Test results published in patent publication US20250019370A1, “L-LYSINE SALT OF 4-CHLORO-5-[4-(2,6-DICHLOROPHENYL)SULFONYLPIPERAZIN-1-YL]-1-BENZOFURAN-2-CARBOXYLIC ACID AND VARIOUS FORMS THEREOF” (ENYO PHARMA, priority 2023, published 2025).

Columns and labels:
[1] = Solubility kinetics in FaSSIF medium; type: physicochemical; conditions: after 24 h; for Soluble fraction: 37° C.; for pH: pH given with the soluble fraction
Procedure: The solubility kinetics of the salt forms as well as the native EYP001 free acid form were determined in FaSSIF and FeSSIF media, and in a pH 4.5 acetate buffer as detailed below: The samples were prepared by adding an excess of each tested bulk (salt or native EYP001) to a given volume of test medium. The suspension was stirred by orbital stirring over 1 hour (in both pH 4.5 acetate buffer and FeSSIF medium) or 24 hours ([…] medium) at 37° C., protected from light. In FaSSIF medium, the soluble concentration was assessed after 24 hours of stirring. […] At each time point, the “supernatant” was isolated and diluted in a solvent mixture allowing its injection into the chromatographic system. The concentration in solution in the test medium was determined by HPLC with external standardization.

[2] = Thermogravimetric analysis (TGA), mass losses upon heating; type: physicochemical
Procedure: Thermogravimetric analysis was performed on a TA Instruments TGA Hi-Res 2950 apparatus equipped with an evolved gas analysis furnace. A sample was placed in an opened aluminium basket and analysed according to the following conditions: […]

[3] = Dynamic Vapor Sorption (DVS) analysis (gas water sorption); type: physicochemical; conditions: for water uptake upon sorption (DVS): 25° C./95% RH; for hygroscopicity (DVS): hygroscopic above 2% mass gain at 25° C./60% RH
Procedure: The dynamic vapor sorption (DVS) analysis (gas water sorption) was performed on a DVS-Intrinsic incubator (SMS Ltd), equipped with DVS-Intrinsic Control Software 1.0. The sample, placed in an aluminium basket holder, was submitted to a full-cycle analysis (sorption followed by desorption cycle) under the following conditions:
The sample was first pre-dried under a stream of dry air until a stabilized sample mass was observed. Then, the relative humidity was increased by 5% increments. At each step, the sample mass was allowed to increase until equilibrium is reached (according to a given dm/dt target), and then a new relative humidity rise occurred. Relative humidity was ramped up to 95%. After equilibration at this point, desorption began in a similar stepwise manner, with sample mass decrease again allowed to stabilize after each incremental humidity decrease.
With both segments of the above-described method, the sample mass recording allowed describing of the whole vapor water sorption/desorption behaviour versus relative humidity.

[4] = Solubility kinetics in FeSSIF medium; type: physicochemical; conditions: for Soluble fraction: 37 ° C.
Procedure: The solubility kinetics of the salt forms as well as the native EYP001 free acid form were determined in FaSSIF and FeSSIF media, and in a pH 4.5 acetate buffer as detailed below: The samples were prepared by adding an excess of each tested bulk (salt or native EYP001) to a given volume of test medium. […] In FaSSIF medium, the soluble concentration was assessed after 24 hours of stirring. […] At each time point, the “supernatant” was isolated and diluted in a solvent mixture allowing its injection into the chromatographic system. The concentration in solution in the test medium was determined by HPLC with external standardization.

[5] = Solubility kinetics in pH 4.5 acetate buffer; type: physicochemical; conditions: 37 ° C.
Procedure: The solubility kinetics of the salt forms as well as the native EYP001 free acid form were determined in FaSSIF and FeSSIF media, and in a pH 4.5 acetate buffer as detailed below:
The samples were prepared by adding an excess of each tested bulk (salt or native EYP001) to a given volume of test medium. The suspension was stirred by orbital stirring over 1 hour (in both pH 4.5 acetate buffer and FeSSIF medium) or 24 hours (inFaSSIF medium) at 37° C., protected from light.
In pH 4.5 acetate buffer, the soluble concentration was assessed after 0.5 hour and 1 hour of stirring.
At each time point, the “supernatant” was isolated and diluted in a solvent mixture allowing its injection into the chromatographic system. The concentration in solution in the test medium was determined by HPLC with external standardization.

[6] = Pharmacokinetic study Experiment #4, oral administration in rats; type: in vivo, rat; conditions: 10 mg EqEYP001/Kg
Procedure: In a fourth study (Experiment #4), EYP001, EYP001 L-lysine salt amorphous Form and EYP001 L-lysine salt Form VI in aqueous formulations (0.5% CMC, 0.25% Tween 80, water) were orally administrated at a dose of 10 mg EqEYP001/Kg in 8 male rats for each compound (4 rats on day 1 and 4 rats on day 2 for each compound). Blood samples were taken at 0.25 h, 0.5 h, 1 h, 2 h, 4 h, 6 h, 8 h, 12 h, and 24 h after oral administration.

[7] = Pharmacokinetic study Experiment #1, oral administration in rats; type: in vivo, rat; conditions: 50 mg EqEYP001/Kg, male rats, aqueous formulation
Procedure: (§1) In a first study (Experiment #1), EYP001, EYP001 Meglumine salt, and EYP001 L-lysine salt Form I in aqueous formulations (0.5% CMC, 0.25% Tween 80, water) were orally administrated at a dose of 50 mg EqEYP001/Kg in 3 male rats for each compound. Blood samples were taken at 0.25 h, 0.5 h, 1 h, 2 h, 4 h, 6 h, 8 h, 12 h, and 24 h after oral administration.

[8] = Pharmacokinetic study Experiment #2, oral administration in rats; type: in vivo, rat; conditions: rat, in vivo, 50 mg EqEYP001/Kg, male rats, aqueous formulation
Procedure: as §1, with “second” for “first”, “#2),” for “#1), EYP001,”, “EYP001” for “EYP001 Meglumine salt,”, “8” for “3”

[9] = Pharmacokinetic study Experiment #3, oral administration in rats; type: in vivo, rat; conditions: rat, plasma, 10 mg EqEYP001/Kg, male rats, aqueous formulation
Procedure: as §1, with “third” for “first”, “#3),” for “#1), EYP001,”, “EYP001” for “EYP001 Meglumine salt,”, “10” for “50”, “6-8” for “3”

[10] = listed as EYP001 L-lysine salt (form VI)
[11] = after 0.5 h, listed as EYP001 L-Lysine salt (Form VI)
[12] = after 1 h, listed as EYP001 L-Lysine salt (Form VI)
[13] = pH given with the soluble fraction, after 2 h
[14] = male rats, aqueous formulation, listed as EYP001 L-lysine salt (Form VI)
[15] = male rats, versus EYP001 free acid, listed as EYP001 L-lysine salt (Form VI)

NC1CCCCC1.O=C(O)c1cc2c(Cl)c(N3CCN(S(=O)(=O)c4c(Cl)cccc4Cl)CC3)ccc2o1
Soluble fraction [1]: 0.19 mg/mL of EYP001 | pH [1]: 6.5

O=C(O)c1cc2c(Cl)c(N3CCN(S(=O)(=O)c4c(Cl)cccc4Cl)CC3)ccc2o1.c1ccc(CCNCc2ccccc2)cc1 [EYP001 Benethamine salt (Polymorph I)]
Soluble fraction [1]: 0.01 mg/mL of EYP001 | pH [1]: 6.6

O=C(O)c1cc2c(Cl)c(N3CCN(S(=O)(=O)c4c(Cl)cccc4Cl)CC3)ccc2o1.c1ccc(CCNCc2ccccc2)cc1 [EYP001 Benethamine salt (Polymorph II)]
Soluble fraction [1]: 0.01 mg/mL of EYP001 | pH [1]: 6.5

NCCCC[C@H](N)C(=O)O.O=C(O)c1cc2c(Cl)c(N3CCN(S(=O)(=O)c4c(Cl)cccc4Cl)CC3)ccc2o1 [EYP001 L-lysine salt Form VI, L-lysine salt of 4-chloro-5-[4-(2,6-dichlorophenyl)sulfonylpiperazin-1-yl]-1-benzofuran-2-carboxylic acid]
Start (° C.) ([2]; TGA step 1): 223 °C | Stop (° C.) ([2]; TGA step 1): 275 °C | TEndset (° C.) ([2]; TGA step 1): 262 °C | TOnset (° C.) ([2]; TGA step 1): 251 °C | Δm (%) mass loss upon heating ([2]; TGA step 1): 11.2% | Start (° C.) ([2]; TGA step 2): 275 °C | Stop (° C.) ([2]; TGA step 2): 480 °C | TEndset (° C.) ([2]; TGA step 2): 344 °C | TOnset (° C.) ([2]; TGA step 2): 313 °C | Δm (%) mass loss upon heating ([2]; TGA step 2): 58.4% | onset temperature of thermal decomposition (TGA) ([2]; heater ramp 10 ° C./min, nitrogen, listed as EYP001 L-lysine salt (Form VI)): 251 °C | mass loss before the beginning of thermal decomposition (TGA) ([2]; upon heating, listed as EYP001 L-lysine salt (Form VI)): no mass loss | mass loss during preliminary drying phase ([3]; 25° C./0% RH before sorption, listed as EYP001 L-lysine salt (Form VI)): no significant mass loss | water uptake (DVS) ([3]; 25° C./60% RH, listed as EYP001 L-lysine salt form VI): 0.07% | water uptake upon sorption (DVS) ([3]; listed as EYP001 L-lysine salt (Form VI)): 0.4% | water uptake upon sorption (DVS) [3, 10]: 0.4% | maximum hysteresis sorption/desorption ([3]; 25° C., listed as EYP001 L-lysine salt (Form VI)): 0.15% | hygroscopicity (DVS) [3, 10]: non-hygroscopic | hygroscopicity (DVS) ([3]; listed as EYP001 L-lysine salt form VI): non-hygroscopic | Soluble fraction [4, 11]: 0.50 mg/mL of EYP001 | Soluble fraction [4, 12]: 0.75 mg/mL of EYP001 | Soluble fraction ([4]; after 2 h, listed as EYP001 L-Lysine salt (Form VI)): 0.90 mg/mL of EYP001 | Soluble fraction ([4]; after 24 h, listed as EYP001 L-Lysine salt (Form VI)): 1.18 mg/mL of EYP001 | pH [4, 13]: (pH = 4.9) | pH ([4]; pH printed with the soluble fraction, after 0.5 h, listed as EYP001 L-Lysine salt (Form VI)): (pH = 5.0) | pH ([4]; pH printed with the soluble fraction, after 1 h, listed as EYP001 L-Lysine salt (Form VI)): (pH = 4.9) | pH ([4]; pH printed with the soluble fraction, after 24 h, listed as EYP001 L-Lysine salt (Form VI)): (pH = 4.9) | Soluble fraction [5, 11]: 0.035 mg/mL of EYP001 | Soluble fraction [5, 12]: 0.033 mg/mL of EYP001 | Mean AUClast [6, 14]: 4612.3 ng·h/mL | Mean Cmax [6, 14]: 2399.2 ng/mL | % increase/EYP001 (AUClast) [6, 15]: +36.6% | % increase/EYP001 (Cmax) [6, 15]: +66.1% | C max compared to EYP001 free acid ([6]; rat): higher C max | exposure (AUC0-24) compared to EYP001 free acid ([6]; rat): superior exposure | variability of the C max (CV %) compared to EYP001 free acid ([6]; rat): strongly reduced | variability of the exposure (CV %) compared to EYP001 free acid ([6]; rat): strongly reduced

CNCC(O)C(O)C(O)C(O)CO.O=C(O)c1cc2c(Cl)c(N3CCN(S(=O)(=O)c4c(Cl)cccc4Cl)CC3)ccc2o1 [EYP001 Meglumine salt, reference compound]
Mean AUC0-24 [7]: 33076 ng·h/mL | Mean Cmax [7]: 5372 ng/mL

C1COCCN1.O=C(O)c1cc2c(Cl)c(N3CCN(S(=O)(=O)c4c(Cl)cccc4Cl)CC3)ccc2o1 [EYP001 Morpholine salt, reference compound]
Soluble fraction [1]: 0.22 mg/mL of EYP001 | pH [1]: 6.5

O=C(O)c1cc2c(Cl)c(N3CCN(S(=O)(=O)c4c(Cl)cccc4Cl)CC3)ccc2o1 [EYP001, 4-chloro-5-[4-(2,6-dichlorophenyl)sulfonylpiperazin-1-yl]-1-benzofuran-2-carboxylic acid]
Cmax [8]: 5580 ng/mL | AUC(0-t) ([8]; read-out: Mean AUC0-24): 29000 ng·h/mL | Cmax [9]: 1350 ng/mL | AUC(0-t) ([9]; read-out: Mean AUC0-24): 3970 ng·h/mL | Soluble fraction ([4]; after 0.5 h): 0.38 mg/mL of EYP001 | Soluble fraction ([4]; after 1 h): 0.45 mg/mL of EYP001 | Soluble fraction ([4]; after 2 h): 0.51 mg/mL of EYP001 | Soluble fraction ([4]; after 24 h): 0.62 mg/mL of EYP001 | pH ([4]; pH given with the soluble fraction, after 0.5 h): (pH = 4.9) | pH ([4]; pH given with the soluble fraction, after 1 h): (pH = 6.4) | pH [4, 13]: (pH = 4.9) | pH ([4]; pH given with the soluble fraction, after 24 h): (pH = 4.9) | Soluble fraction ([5]; after 0.5 h): 0.004 mg/mL of EYP001 | Soluble fraction ([5]; after 1 h): 0.003 mg/mL of EYP001 | Cmax ([6]; rat, in vivo, male rats, aqueous formulation): 1440 ng/mL | AUC(0-t) ([6]; rat, in vivo, male rats, aqueous formulation, read-out: Mean AUClast): 3380 ng·h/mL | Cmax ([7]; rat, in vivo): 6990 ng/mL | AUC(0-t) ([7]; rat, in vivo, read-out: Mean AUC0-24): 52300 ng·h/mL | Soluble fraction [1]: 0.20 mg/mL of EYP001 | pH [1]: 6.4
